Results from patent publication US8563731B2, “Mesylate salt of 5-(2-{[6-(2,2-difluoro-2-phenylethoxy)hexyl]jamino}-1-hydroxyethyl)-8-hydroxyquinolin-2(1H)-one as agonist of the β2 adrenergic receptor” (Almirall, S.A., priority 2008, dated 2013).
Structures can show the parent of a compound that is named as a salt.

Test: Stability Test under accelerated condition (solid in amber glass vials, impurities by HPLC)
Type: physicochemical
Experimental: Stability of the mesylate salt of the present invention was evaluated under accelerated condition. About 5 mg of the mesylate salt of the present invention were introduced in individual 10 ml amber glass vials. These vials were stored at 40° C. during 30 days and at 80° C. during 15 and 30 days, respectively. After the forced stress conditions, samples were dissolved in 5 ml of the appropriate solvent. Impurities increase was determined using HPLC analysis and by calculating the relative areas.

O=c1ccc2c([C@@H](O)CNCCCCCCOCC(F)(F)c3ccccc3)ccc(O)c2[nH]1 [5-(2-{[6-(2,2-difluoro-2-phenylethoxy)hexyl]amino}-1(R)-hydroxy-ethyl)-8-hydroxyquinolin-2(1H)-one mesylate]
HPLC Impurities (% area) (Stability @ 40° C. 30 days): 2.4% | HPLC Impurities (% area) (Stability @ 80° C. 15 days): 3.10% | HPLC Impurities (% area) (Stability @ 80° C. 30 days): 3.8% | percentage of impurities observed (all forced conditions (40° C. 30 days, 80° C. 15 and 30 days)): less than 5%
